Two molecules from patent US20080139620A1, “Pyrazole Derivatives For The Inhibition Of Cdk's And Gsk's” (ASTEX THERAPEUTICS LIMITED, priority 2005, published 2008) can be followed below.

Data set [1] is described as follows: Determination of oral bioavailability. It is filed as in vivo. The settings on record: BALB/c, mouse, plasma, mice, 5 mg/kg PO vs 1 mg/kg IV. As to the method:
The oral bioavailability of the compounds of formula (I) may be determined as follows.
The test compound is administered as a solution both I.V. and orally to balb/c mice at the following dose level and dose formulations; • 1 mg/kg IV formulated in 10% DMSO/90% (2-hydroxypropyl)-β-cyclodextrin (25% w/v); and • 5 mg/kg PO formulated in 10% DMSO/20% water/70% PEG200.
At various time points after dosing, blood samples are taken in heparinised tubes and the plasma fraction is collected for analysis. The analysis is undertaken by LC-MS/MS after protein precipitation and the samples are quantified by comparison with a standard calibration line constructed for the test compound. The area under the curve (AUC) is calculated from the plasma level vs time profile by standard methods. The oral bioavailability as a percentage is calculated from the following equation: […]

Data set [2] concerns human tumour derived cell lines. Put plainly: Xenograft studies, human tumour derived cell lines implanted sub-cutaneously. The format is in vivo, nude mice. The conditions noted are these: dosed orally. The source says: These biomarkers include suppression of phosphorylation of substrates of the cyclin dependent kinases e.g. retinoblastoma protein.
Another data set addresses Activated CDK2/CyclinA (Homo sapiens, UniProt P24941). The experiment in a line: Activated CDK2/CyclinA kinase inhibitory activity assay. The format is biochemical. As to the method: Compounds of the invention were tested for kinase inhibitory activity using the following protocol.
The reaction is allowed to proceed for 2 to 4 hours before being stopped with an excess of ortho-phosphoric acid (5 μl at 2%). γ^33P-ATP which remains unincorporated into the histone H1 is separated from phosphorylated histone H1 on a Millipore MAPH filter plate. The wells of the MAPH plate are wetted with 0.5% orthophosphoric acid, and then the results of the reaction are filtered with a Millipore vacuum filtration unit through the wells. Following filtration, the residue is washed twice with 200 μl of 0.5% orthophosphoric acid. Once the filters have dried, 20 μl of Microscint 20 scintillant is added, and then counted on a Packard Topcount for 30 seconds.

For another data set, the system named is HCT-116 cell line. Put plainly: Anti-proliferative activity, Alamar Blue assay. It is filed as cell-based, human. The conditions noted are these: for IC50: HCT-116 human colon carcinoma, 72 hours, read-out: HCT-116 cell proliferation IC50. As to the method:
The anti-proliferative activities of compounds of the invention can be determined by measuring the ability of the compounds to inhibition of cell growth in a number of cell lines. […] The method is based on the ability of viable cells to reduce resazurin to its fluorescent product resorufin. For each proliferation assay cells are plated onto 96 well plates and allowed to recover for 16 hours prior to the addition of inhibitor compounds for a further 72 hours. […] In the case of the non-proliferating cell assay cells are maintained at confluence for 96 hour prior to the addition of inhibitor compounds for a further 72 hours. The number of viable cells is determined by Alamar Blue assay as before. Cell lines can be obtained from the ECACC (European Collection of cell Cultures).

A further data set addresses T1, GSK3-β (Homo sapiens, UniProt P49841).
T1 construct: purchased Upstate Discovery
The experiment in a line: GSK3-B kinase inhibitory activity assay. The conditions noted are these: read-out: GSK3β IC50. The format is biochemical. As to the method: The reaction is allowed to proceed for 3 hours (GSK3-β) before being stopped with an excess of ortho-phosphoric acid (5 μl at 2%). The filtration procedure is as for Activated CDK2/CyclinA assay above.

T1 sequence (P49841 whole entry): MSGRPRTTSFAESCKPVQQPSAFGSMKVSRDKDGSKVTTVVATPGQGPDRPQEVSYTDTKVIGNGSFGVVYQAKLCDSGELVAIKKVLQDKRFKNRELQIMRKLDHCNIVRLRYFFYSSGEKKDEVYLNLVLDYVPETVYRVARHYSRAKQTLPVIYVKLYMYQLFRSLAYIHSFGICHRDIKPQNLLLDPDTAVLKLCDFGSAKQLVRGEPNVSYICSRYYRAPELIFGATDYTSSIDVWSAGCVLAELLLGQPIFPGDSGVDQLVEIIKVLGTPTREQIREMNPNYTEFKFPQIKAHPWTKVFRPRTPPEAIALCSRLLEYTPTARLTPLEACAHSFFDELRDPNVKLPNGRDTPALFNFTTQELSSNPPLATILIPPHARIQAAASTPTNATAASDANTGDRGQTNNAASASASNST

In turn, `CS(=O)(=O)N1CCC(NC(=O)c2n[nH]cc2NC(=O)c2c(Cl)cccc2Cl)CC1` [Example 1, 4-(2,6-dichloro-benzoylamino)-1H-pyrazole-3-carboxylic acid (1-methanesulphonyl-piperidin-4-yl)-amide] displayed a bioavailability in data set [1] of 40 to 50%. Also, the “tumour biomarkers (phosphorylation of CDK substrates e.g. retinoblastoma protein)” value in data set [2] (nude mice xenografts) is given as “inhibition of the tumour biomarkers”. Besides, the “tumour growth in xenografts” value in data set [2] (nude mice, sub-cutaneous xenografts) is “inhibition of tumour growth”. The “in vitro kinase (CDK2) inhibitory activity compared to difluoro-analogue” value on Activated CDK2/CyclinA is listed as “greater in vitro kinase (CDK2) inhibitory activity”. For the same molecule, the IC50 in the data set with HCT-116 cell line turned out to be 110 nM. In addition, the “anti-proliferative potency on HCT-116 compared to difluoro-analogue” value with HCT-116 cell line (human colon cancer HCT-116 cell line) is given as 6-7 fold.

Regarding `CS(=O)(=O)N1CCC(NC(=O)c2n[nH]cc2NC(=O)c2c(F)cccc2F)CC1` [Example 131 of PCT/GB2004/003179], the IC50 on GSK3-β stood at 14 nM; at Activated CDK2/CyclinA it was 2.2 nM; with HCT-116 cell line, 740 nM. Also, on Activated CDK2/CyclinA, the “selectivity for CDK inhibition over GSK3β” value is approximately 6 fold.
